Experimental data: ChEMBL document CHEMBL2448811, “Comparison of the accuracy of experimental and predicted pKa values of basic and acidic compounds” (Pharm Res, 2013)
Where a SMILES comes first, the peptide text is derived from it.

Assays:
physchem [1] = assay: physchem
physchem [2] = assay: physchem; remark: listed apart in the source
physchem [3] = assay: physchem; remark: listed apart in the source
physchem [4] = assay: physchem; remark: listed apart in the source

CN/C(=C/[N+](=O)[O-])NCCSCc1ccc(CN(C)C)o1
pKa (physchem [1]): 9.6
pKa (physchem [2]): 8.47

CN(C)[C@@H]1C(=O)C(C(N)=O)=C(O)[C@@]2(O)C(O)=C3C(=O)c4c(O)cccc4[C@@](C)(O)C3[C@H](O)C12 (some centres undefined)
pKa (physchem [3]): 7.32

CCCCCCCC(=O)OC(CC(=O)[O-])C[N+](C)(C)C (centres undefined)
pKa (physchem [3]): 3.6

CCCCCCCCCC(=O)OC(CC(=O)[O-])C[N+](C)(C)C (centres undefined)
pKa (physchem [3]): 3.65

N[C@@H](Cc1c[nH]c2ccccc12)C(=O)N[C@@H](Cc1c[nH]c2ccccc12)C(=O)O (H-Trp-Trp-OH)
pKa (physchem [4]; pKa): 3.38

CCCCC[C@H](O)/C=C/[C@H]1[C@H](O)CC(=O)[C@@H]1CCCCCCC(=O)O [ALPROSTADIL]
pKa (physchem [4]; pKa): 4.87

Nc1ccc(C(=O)O)cc1 [AMINOBENZOIC ACID]
pKa (physchem [3]): 4.87

Nc1ccc(C(=O)O)c(O)c1 [AMINOSALICYLIC ACID]
pKa (physchem [1]): 3.4
pKa (physchem [2]; pKa): 3.62

CCN1CCCC1CNC(=O)c1cc(S(=O)(=O)CC)c(N)cc1OC (centres undefined) [AMISULPRIDE]
pKa (physchem [1]): 9.3
pKa (physchem [2]; pKa): 9.37

N[C@@H](CC(=O)O)C(=O)O [ASPARTIC ACID]
pKa (physchem [4]; pKa): 9.67

CCCCNc1cc(C(=O)O)cc(S(N)(=O)=O)c1Oc1ccccc1 [BUMETANIDE]
pKa (physchem [1]): 3.6
pKa (physchem [2]; pKa): 3.83

CC(NC(C)(C)C)C(=O)c1cccc(Cl)c1 (centres undefined) [BUPROPION]
pKa (physchem [2]): 8.35

CCCC(=O)OC(CC(=O)[O-])C[N+](C)(C)C (centres undefined) [Butyryl-carnitine]
pKa (physchem [3]): 3.56

CCN(CC)C(=O)Nc1ccc(OCC(O)CNC(C)(C)C)c(C(C)=O)c1 (centres undefined) [CELIPROLOL]
pKa (physchem [4]; pKa): 9.66

CCCCC[C@H](O)/C=C/[C@H]1[C@H](O)CC(=O)[C@@H]1C/C=C\CCCC(=O)O [DINOPROSTONE]
pKa (physchem [4]; pKa): 4.77

CN(C)CC/C=C1\c2ccccc2COc2ccccc21 [E-DOXEPIN]
pKa (physchem [1]): 8.7
pKa (physchem [2]; pKa): 9

CC(Cc1ccc(C(C)(C)C)cc1)CN1C[C@@H](C)O[C@@H](C)C1 (some centres undefined) [FENPROPIMORPH]
pKa (physchem [4]): 7.34

CN1CCN(c2c(F)cc3c(=O)c(C(=O)O)cn(CCF)c3c2F)CC1 [FLEROXACIN]
pKa (physchem [1]): 5.5
pKa (physchem [2]; pKa): 8.8

COc1c(N2CCNC(C)C2)c(F)cc2c(=O)c(C(=O)O)cn(C3CC3)c12 (centres undefined) [GATIFLOXACIN]
pKa (physchem [1]): 9.4
pKa (physchem [2]; pKa): 8.74

CNC[C@H](O)[C@@H](O)[C@H](O)[C@H](O)CO [MEGLUMINE]
pKa (physchem [4]; pKa): 9.6

N[C@@H](Cc1ccccc1)C(=O)O [PHENYLALANINE]
pKa (physchem [4]; pKa): 9.08

CCC(=O)O[C@](Cc1ccccc1)(c1ccccc1)[C@H](C)CN(C)C [PROPOXYPHENE]
pKa (physchem [4]): 9.06

Cc1ncc(CO)c(CN)c1O [PYRIDOXAMINE]
pKa (physchem [3]): 10.3

CNC(=C[N+](=O)[O-])NCCSCc1ccc(CN(C)C)o1 [RANITIDINE]
pKa (physchem [4]; pKa): 8.31

CC[C@H]1OC(=O)C[C@@H](O)[C@H](C)[C@@H](O[C@@H]2O[C@H](C)C[C@H](N(C)C)[C@H]2O)[C@@H](CC=O)C[C@@H](C)C(=O)/C=C/C(C)=C/[C@@H]1C [REPROMICIN]
pKa (physchem [4]; pKa): 8.83

CCN(C)C(=O)Oc1cccc([C@H](C)N(C)C)c1 [RIVASTIGMINE]
pKa (physchem [4]): 8.8

CC[C@H]1OC(=O)[C@H](C)[C@@H](O[C@H]2C[C@@](C)(OC)[C@@H](O)[C@H](C)O2)[C@H](C)[C@@H](O[C@@H]2O[C@H](C)C[C@H](N(C)C)[C@H]2O)[C@](C)(O)C[C@@H](C)/C(=N\OCOCCOC)[C@H](C)[C@@H](O)[C@]1(C)O [ROXITHROMYCIN]
pKa (physchem [4]; pKa): 9.27
